Reference: US4339580A, “Piperazinylalkoxyindanes and acid addition salts thereof” (Mitsubishi Chemical Industries, Limited, priority 1979, dated 1982)
Like-named read-outs stand apart in the source and are kept apart here.

How the values were obtained:
[1] = LD50 (Litchfield-Wilcoxon method); conditions: mouse, in vivo, PO, mice
Method: (§1) The animals used were ddy male mice (weighing 20 to 22 g) and they were tested for anti-fighting and anti-morphine actions as indications of anti-anxiety action. The anti-fighting activity of the test compound was evaluated by its suppressing or taming effect against fighting which was developed by applying an electric shock (28 V-DC, 4-5 mA, 3 min.) through a grid to the foot of the animal [R. E. Tedeschi, D. H. Tedeschi, A. Mucha, L. Cook, P. A. Mattis, E. J. Fellows, J. Pharmacol. exp. Therap., 125, 28 (1959)] The anti-morphine activity was evaluated according to the method of Takagi et al. by the suppressing effect against a tail reaction induced by administration of 20 mg/kg i.p. of morphine [H. Takagi, T. Kamioka, S. Kobayashi, Y. Suzuki and K. Tachikawa, Japanese J. of Pharmacology, 66, 107 (1970)].
The values for LD50 were calculated by the Litchfield-Wilcoxon method [J. T. Litchfield and F. Wilcoxon, J. Pharmacol. exp. Therap., 96, 99 (1949)].

[2] = tested on: tail reaction induced by morphine; test: anti-morphine activity (suppression of tail reaction induced by 20 mg/kg i.p. morphine); type: in vivo, ddy male mice; conditions: Mus musculus, read-out: ED50 anti-morphine activity
Method: (§2) As controls, chlorodiazepoxide which is known as an anti-anxiety agent or minor tranquilizer and a known Compound 40 were used. The results are summarized in terms of 50% effective dose (ED50, mg/kg P.O.) in Table 1 below.
as §1

[3] = tested on: fighting developed by electric shock; test: anti-fighting activity (suppressing or taming effect against electric foot shock induced fighting); type: in vivo, ddy male mice; conditions: Mus musculus, 0.05 h, read-out: ED50 taming effect
Method: as §2, §1

[4] = muscle relaxant action, traction test; type: in vivo, ddy male mice; conditions: Mus musculus, po, read-out: ED50 traction test
Method: as §2, §1
Muscle relaxant action was evaluated by a traction test [S. Courvoisier, R. Ducrot, L. Julou, "Psychotropic Drugs" Ed. by S. Garattini, V. Ghetti, p. 313 (Elsevier) 1957].

[5] = tested on: anti-fighting and anti-morphine actions; test: anti-anxiety activity (anti-fighting and anti-morphine actions as indications); type: in vivo, ddy male mice; conditions: PO, mice; versus chlorodiazepoxide and Compound 40
Method: as §2, §1

[6] = PO, mice, morphine 20 mg/kg i.p.
[7] = PO, mice, electric shock 28 V-DC, 4-5 mA, 3 min.

SMILES	LD50 [1] [mg/kg]	ED50 ([2]; po) [mg/kg]	ED50 ([3]; po) [mg/kg]	ED50 [4] [mg/kg]	ED50 [2, 6] [mg/kg]	anti-anxiety activities compared with controls [5]	ED50 [3, 7] [mg/kg]
CNC1=Nc2ccc(Cl)cc2C(c2ccccc2)=[N+]([O-])C1 [Chlorodiazepoxide, reference compound]	720	13	12.5	8.3			
Fc1ccc(N2CCN(CCCCOc3ccc4c(c3)CCC4)CC2)cc1 [Compound 5, 5-{4-[4-(4-fluorophenyl)-1-piperazinyl]butoxy}indane]	> 1100			21.5	11.1	superior to those of chlorodiazepoxide and Compound 40	12
Fc1ccc(N2CCN(CCCOc3ccc4c(c3)CCC4)CC2)cc1 [Compound 4, 5-{3-[4-(4-fluorophenyl)-1-piperazinyl]propoxy}indane]	> 2000			28	6	superior to those of chlorodiazepoxide and Compound 40	7.5
Fc1cc2c(cc1OCCCN1CCN(c3cccc(Cl)c3)CC1)CCC2 [Compound 21, 6-fluoro-5-{3-[4-(3-chlorophenyl)-1-piperazinyl]propoxy}indane]	1500 to 2000			88	13.8	superior to those of chlorodiazepoxide and Compound 40	14.5
O=C(CCCN1CCN(c2ccc(F)cc2)CC1)c1ccc2c(c1)CCC2 [Compound 40, reference compound]	1000 to 1500			57	15.5		20
Fc1ccc(N2CCN(CCCOc3cc4c(cc3F)CCC4)CC2)cc1 [Compound 19, 6-fluoro-5-{3-[4-(4-fluorophenyl)-1-piperazinyl]propoxy}indane]	> 2000			17.5	12.5	superior to those of chlorodiazepoxide and Compound 40	1
Clc1cccc(N2CCN(CCCOc3ccc4c(c3)CCC4)CC2)c1 [Compound 17]	> 2000			45	15.5	superior to those of chlorodiazepoxide and Compound 40	12.6
c1ccc(N2CCN(CCCOc3ccc4c(c3)CCC4)CC2)cc1 [Compound 1, 5-[3-(4-phenyl-1-piperazinyl)propoxy]indane]	> 1500			14.1	6.3	superior to those of chlorodiazepoxide and Compound 40	6.6
Fc1cc2c(cc1OCCCN1CCN(c3ccccc3)CC1)CCC2 [Compound 18, 6-fluoro-5-[3-(4-phenyl-1-piperazinyl)propoxy]indane]	> 2000			14.5	10.6	superior to those of chlorodiazepoxide and Compound 40	2.9
COc1cc2c(cc1OCCCN1CCN(c3ccc(F)cc3)CC1)CCC2 [Compound 30, 6-methoxy-5-{3-[4-(4-fluorophenyl)-1-piperazinyl]propoxy}indane]	> 1000			12.5	10.2	superior to those of chlorodiazepoxide and Compound 40	13
Cc1cc2c(cc1OCCCN1CCN(c3ccccc3)CC1)CCC2 [Compound 24, 6-methyl-5-[3-(4-phenyl-1-piperazinyl)propoxy]indane]	> 2000			46	16	superior to those of chlorodiazepoxide and Compound 40	8.5
